Where two headings read alike, the source gives them in different places. Each block holds one molecule with its values, some of them ahead of it.
Target: T1, N-type Ca^2+ Channel (Homo sapiens, UniProt Q00975)
T1 construct: host or cells: IMR-32 cells differentiated with dibutyryl cAMP and bromodeoxyuridine
Experiment: Measurement of N-type Ca2+ channel blocking potencies in IMR-32 cells using the fluorescent Ca2+ indicator Indo-1
Assay type: cell-based
How it was run: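 IMR-32 cells were differentiated 7–13 days (1 mM dibutyryl cAMP, 2.5 µM BrdU) and Indo-1-loaded. They were preincubated 10 min at 30 °C with compound and 5 µM nitrendipine in HEPES/Tris pH 7.4 HBSS with 0.5% BSA, then KCl/CaCl2-depolarized. The peak-minus-basal 400/490 nm emission ratio gave IC50 by four-parameter logistic fit.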

[1] = 1 μM, IMR-32 cells, 5 μM nitrendipine
[2] = 10 μM, IMR-32 cells, 5 μM nitrendipine
[3] = IMR-32 cells, K+ depolarization, 5 μM nitrendipine to block L-type channels, read-out: IMR 32 IC50
[4] = IMR-32 cells, 5 μM nitrendipine, Examples 116-140, read-out: IMR 32% of Blockade @

T1 sequence (Q00975 whole entry): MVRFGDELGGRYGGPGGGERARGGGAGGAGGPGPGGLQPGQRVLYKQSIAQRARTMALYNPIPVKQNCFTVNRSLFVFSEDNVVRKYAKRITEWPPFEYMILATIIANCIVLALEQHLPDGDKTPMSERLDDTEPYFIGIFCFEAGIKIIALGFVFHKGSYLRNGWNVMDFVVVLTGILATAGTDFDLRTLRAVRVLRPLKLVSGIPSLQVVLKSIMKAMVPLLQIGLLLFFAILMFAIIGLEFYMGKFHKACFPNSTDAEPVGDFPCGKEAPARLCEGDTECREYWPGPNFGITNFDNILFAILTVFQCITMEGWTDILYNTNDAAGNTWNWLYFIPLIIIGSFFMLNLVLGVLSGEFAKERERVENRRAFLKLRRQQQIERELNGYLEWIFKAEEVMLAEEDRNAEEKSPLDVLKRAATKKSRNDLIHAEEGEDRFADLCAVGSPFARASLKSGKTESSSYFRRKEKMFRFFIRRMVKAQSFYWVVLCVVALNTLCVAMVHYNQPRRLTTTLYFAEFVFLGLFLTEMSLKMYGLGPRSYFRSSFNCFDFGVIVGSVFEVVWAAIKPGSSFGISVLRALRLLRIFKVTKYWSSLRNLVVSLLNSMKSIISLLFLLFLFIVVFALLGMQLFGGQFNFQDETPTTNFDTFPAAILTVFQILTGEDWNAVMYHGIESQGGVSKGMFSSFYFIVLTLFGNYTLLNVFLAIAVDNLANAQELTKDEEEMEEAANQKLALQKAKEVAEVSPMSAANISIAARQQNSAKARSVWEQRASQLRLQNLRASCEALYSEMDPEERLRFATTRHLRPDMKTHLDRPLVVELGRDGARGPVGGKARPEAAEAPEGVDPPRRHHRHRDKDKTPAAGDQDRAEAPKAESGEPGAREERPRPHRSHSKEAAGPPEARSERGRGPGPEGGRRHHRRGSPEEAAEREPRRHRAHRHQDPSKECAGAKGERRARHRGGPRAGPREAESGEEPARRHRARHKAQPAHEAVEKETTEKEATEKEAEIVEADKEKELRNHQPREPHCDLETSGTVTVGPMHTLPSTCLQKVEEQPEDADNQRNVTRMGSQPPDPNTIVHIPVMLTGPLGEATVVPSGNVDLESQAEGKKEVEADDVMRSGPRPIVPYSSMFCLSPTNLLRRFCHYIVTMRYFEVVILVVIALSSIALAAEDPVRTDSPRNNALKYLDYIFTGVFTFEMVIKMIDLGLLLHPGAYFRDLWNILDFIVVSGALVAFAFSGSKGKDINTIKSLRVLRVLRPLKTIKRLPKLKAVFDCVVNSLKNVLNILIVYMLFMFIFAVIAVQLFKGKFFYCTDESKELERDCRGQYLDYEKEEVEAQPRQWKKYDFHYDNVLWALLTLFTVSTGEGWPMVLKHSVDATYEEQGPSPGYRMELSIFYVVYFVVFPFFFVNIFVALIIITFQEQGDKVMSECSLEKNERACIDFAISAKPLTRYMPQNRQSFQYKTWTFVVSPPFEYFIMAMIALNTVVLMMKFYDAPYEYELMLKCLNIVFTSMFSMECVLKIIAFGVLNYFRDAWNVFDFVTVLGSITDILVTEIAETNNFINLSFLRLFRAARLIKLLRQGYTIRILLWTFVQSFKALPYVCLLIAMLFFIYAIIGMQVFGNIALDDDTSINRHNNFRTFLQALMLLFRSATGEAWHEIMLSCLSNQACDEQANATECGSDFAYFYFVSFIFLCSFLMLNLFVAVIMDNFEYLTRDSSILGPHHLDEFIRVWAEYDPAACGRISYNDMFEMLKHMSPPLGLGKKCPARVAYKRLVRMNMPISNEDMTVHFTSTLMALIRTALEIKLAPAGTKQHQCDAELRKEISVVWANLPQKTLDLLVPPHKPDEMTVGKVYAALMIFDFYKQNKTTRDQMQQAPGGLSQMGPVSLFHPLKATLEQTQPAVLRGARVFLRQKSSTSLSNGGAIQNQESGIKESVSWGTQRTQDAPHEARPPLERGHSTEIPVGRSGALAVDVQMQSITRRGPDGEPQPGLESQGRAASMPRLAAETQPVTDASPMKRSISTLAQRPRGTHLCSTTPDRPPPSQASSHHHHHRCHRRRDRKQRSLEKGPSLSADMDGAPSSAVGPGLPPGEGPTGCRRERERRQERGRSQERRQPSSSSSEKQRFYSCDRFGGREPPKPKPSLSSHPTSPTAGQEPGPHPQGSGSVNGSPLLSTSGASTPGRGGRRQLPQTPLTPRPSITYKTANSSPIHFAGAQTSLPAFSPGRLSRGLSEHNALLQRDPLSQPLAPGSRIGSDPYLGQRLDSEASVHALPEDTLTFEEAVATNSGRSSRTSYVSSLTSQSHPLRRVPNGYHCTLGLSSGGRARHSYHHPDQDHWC
T1 sequence (P54284 whole entry partner): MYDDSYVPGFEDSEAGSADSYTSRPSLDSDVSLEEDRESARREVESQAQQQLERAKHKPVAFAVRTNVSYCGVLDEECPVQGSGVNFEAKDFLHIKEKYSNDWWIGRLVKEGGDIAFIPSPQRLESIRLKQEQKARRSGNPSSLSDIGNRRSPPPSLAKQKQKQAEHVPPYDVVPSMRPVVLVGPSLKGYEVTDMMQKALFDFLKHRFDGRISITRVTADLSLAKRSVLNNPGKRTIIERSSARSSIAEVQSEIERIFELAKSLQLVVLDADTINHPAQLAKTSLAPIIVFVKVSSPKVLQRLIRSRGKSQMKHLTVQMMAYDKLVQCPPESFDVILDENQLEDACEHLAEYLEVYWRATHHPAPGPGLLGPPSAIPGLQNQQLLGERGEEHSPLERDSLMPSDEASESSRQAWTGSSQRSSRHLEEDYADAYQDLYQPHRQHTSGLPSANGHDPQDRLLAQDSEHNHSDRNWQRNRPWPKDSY
T1 sequence (P54289 25-946 partner limits assumed): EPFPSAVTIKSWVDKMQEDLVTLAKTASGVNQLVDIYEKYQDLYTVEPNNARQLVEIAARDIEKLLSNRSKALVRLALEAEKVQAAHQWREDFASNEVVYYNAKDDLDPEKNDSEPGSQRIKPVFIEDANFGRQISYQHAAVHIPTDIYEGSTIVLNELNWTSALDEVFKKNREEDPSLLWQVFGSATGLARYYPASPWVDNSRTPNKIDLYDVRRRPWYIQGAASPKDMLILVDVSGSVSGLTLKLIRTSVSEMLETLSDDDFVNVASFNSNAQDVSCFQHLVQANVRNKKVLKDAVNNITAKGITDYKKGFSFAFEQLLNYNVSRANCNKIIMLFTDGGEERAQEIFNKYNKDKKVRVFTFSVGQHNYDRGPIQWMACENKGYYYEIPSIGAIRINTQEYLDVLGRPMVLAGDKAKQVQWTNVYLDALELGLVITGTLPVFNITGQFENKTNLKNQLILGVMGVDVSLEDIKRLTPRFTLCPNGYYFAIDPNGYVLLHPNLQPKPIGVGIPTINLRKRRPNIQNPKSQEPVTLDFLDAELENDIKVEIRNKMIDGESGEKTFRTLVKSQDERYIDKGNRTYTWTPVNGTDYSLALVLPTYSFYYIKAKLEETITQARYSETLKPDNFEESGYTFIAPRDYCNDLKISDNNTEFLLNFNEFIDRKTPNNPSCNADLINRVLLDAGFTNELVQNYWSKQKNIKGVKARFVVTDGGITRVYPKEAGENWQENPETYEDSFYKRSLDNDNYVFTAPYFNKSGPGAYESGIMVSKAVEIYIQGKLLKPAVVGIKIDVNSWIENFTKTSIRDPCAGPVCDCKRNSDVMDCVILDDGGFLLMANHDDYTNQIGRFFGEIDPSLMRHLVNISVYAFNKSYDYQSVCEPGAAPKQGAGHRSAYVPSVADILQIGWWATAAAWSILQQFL
T1 sequence (P54289 947-1103 partner limits assumed): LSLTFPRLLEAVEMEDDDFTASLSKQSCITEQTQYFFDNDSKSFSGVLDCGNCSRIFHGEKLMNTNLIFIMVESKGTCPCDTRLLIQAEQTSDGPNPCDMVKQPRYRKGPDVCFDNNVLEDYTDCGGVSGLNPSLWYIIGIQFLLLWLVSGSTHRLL

Molecule: CC(C)C[C@@H](C(=O)N[C@@H](Cc1ccc(OCc2ccccc2)cc1)C(=O)N1CCCCC1)N(C)C1CCCCC1 (relative stereo) [Example 20, [S-(R*,R*)]-2-(Cyclohexyl-methyl-amino)-4-methyl-pentanoic acid [2-(4-benzyloxy-phenyl)-1-(piperidine-1-carbonyl)-ethyl]-amide]
IMR 32 % of Blockade @ 1 μM [1]: 65%
IMR 32 % of Blockade @ 10 μM [2]: 87%

Molecule: CC(C)C[C@@H](C(=O)N[C@@H](Cc1ccc(OCc2ccccc2)cc1)C(=O)N1CCN(Cc2ccccc2)CC1)N(C)CC1CCCCC1 (relative stereo) [Example 28, [S-(R*,R*)]-2-(Cyclohexylmethyl-methyl-amino)-4-methyl-pentanoic acid [1-(4-benzyloxy-benzyl)-2-(4-benzyl-piperazin-1-yl)-2-oxo-ethyl]-amide]
IC50 [3]: 0.5 µM

Molecule: CC(C)CCN(C)[C@@H](CC(C)C)C(=O)N[C@@H](Cc1ccc(OCc2ccccc2)cc1)C(=O)NCCCn1ccnc1 (relative stereo) [Example 59, [S-(R*,R*)]-4-Methyl-2-[methyl-(3-methyl-butyl)-amino]-pentanoic acid [2-(4-benzyloxy-phenyl)-1-(3-imidazol-1-yl-propylcarbamoyl)-ethyl]-amide]
IC50 [3]: 1.6 µM

Molecule: CC(C)C[C@@H](C(=O)N[C@@H](Cc1ccc(OCc2ccccc2)cc1)C(=O)NCCc1ccccn1)N(C)C (relative stereo) [Example 133, [S-(R*,R*)]-2-Dimethylamino-4-methyl-pentanoic acid [2-(4-benzyloxy-phenyl)-1-(2-(2-aminoethyl)pyridinecarbamoyl)-ethyl]-amide]
IC50 (read-out: IMR 32% of Blockade @): 5.9 µM

Molecule: CN[C@@H](CC(C)C)C(=O)N[C@@H](Cc1ccc(OCc2ccccc2)cc1)C(=O)NC(C)(C)C (relative stereo) [Example 35, [S-(R*,R*)]-4-Methyl-2-methylamino-pentanoic acid [2-(4-benzyloxy-phenyl)-1-tert-butylcarbamoyl-ethyl]-amide]
IC50 [3]: 2.3 µM

Molecule: CC(C)C[C@@H](C(=O)N[C@@H](Cc1ccc(OCc2ccccc2)cc1)C(=O)NCCN1CCCCC1)N(C)Cc1ccc(C(C)(C)C)cc1 (relative stereo) [Example 15, [S-(R*,R*)]-2-[(4-tert-Butyl-benzyl)-methyl-amino]-4-methyl-pentanoic acid [2-(4-benzyloxy-phenyl)-1-(2-piperidin-1-yl-ethylcarbamoyl)-ethyl]-amide]
IMR 32 % of Blockade @ 1 μM [1]: 56%
IMR 32 % of Blockade @ 10 μM [2]: 80%

Molecule: CC(C)C[C@@H](C(=O)N[C@@H](Cc1ccc(OCc2ccccc2)cc1)C(=O)N1CCN(C)CC1)N(C)C (relative stereo) [Example 6, [S-(R*,R*)]-2-Dimethylamino-4-methyl-pentanoic acid [1-(4-benzyloxy-benzyl)-2-(4-methyl-piperazin-1-yl)-2-oxo-ethyl]-amide]
IMR 32 % of Blockade @ 1 μM: 16%
IMR 32 % of Blockade @ 10 μM: 31%

Molecule: CC(C)C[C@@H](C(=O)N[C@@H](Cc1ccc(OCc2ccccc2)cc1)C(=O)NCCN1CCCCC1)N(C)C1CCCCC1 (relative stereo) [Example 21, [S-(R*,R*)]-2-(Cyclohexyl-methyl-amino)4-methyl-pentanoic acid [2-(4-benzyloxy-phenyl)-1-(2-piperidin-1-yl-ethylcarbamoyl)-ethyl]-amide]
IC50 [3]: 0.88 µM

Molecule: CC(C)C[C@@H](C(=O)N[C@@H](Cc1ccc(OCc2ccccc2)cc1)C(=O)NC(C)(C)C)N(C)C1CCCCC1 (relative stereo) [Example 19, [S-(R*,R*)]-2-(Cyclohexyl-methyl-amino)-4-methyl-pentanoic acid [2-(4-benzyloxy-phenyl)-1-tert-butylcarbamoyl-ethyl]-amide]
IC50 [3]: 0.2 µM

Molecule: CC(C)C[C@H](NCc1ccccc1)C(=O)N[C@@H](Cc1ccc(OCc2ccccc2)cc1)C(=O)OC(C)(C)C (relative stereo) [Example 33, [S-(R*,R*)]-2-(2-Benzylamino-4-methyl-pentanoylamino)-3-(4-benzyloxy-phenyl)-propionic acid tert-butyl ester]
IMR 32 % of Blockade @ 1 μM [1]: 52%
IMR 32 % of Blockade @ 10 μM [2]: 95%

Molecule: CN[C@@H](CC(C)C)C(=O)N[C@@H](Cc1ccc(OCc2ccccc2)cc1)C(=O)N1CCN(Cc2ccccc2)CC1 (relative stereo) [Example 43, [S-(R*,R*)]-4-Methyl-2-methylamino-pentanoic acid [1-(4-benzyloxy-benzyl)-2-(4-benzyl-piperazin-1-yl)-2-oxo-ethyl]-amide]
IMR 32 % of Blockade @ 1 μM [1]: 51%
IMR 32 % of Blockade @ 10 μM [2]: 96%

Molecule: CC(C)C[C@@H](C(=O)N[C@@H](Cc1ccc(OCc2ccccc2)cc1)C(=O)N1CCN(C)CC1)N(C)Cc1ccc(C(C)(C)C)cc1 (relative stereo) [Example 18, [S-(R*,R*)]-2-[(4-tert-Butyl-benzyl)-methyl-amino]-4-methyl-pentanoic acid [1-(4-benzyloxy-benzyl)-2-(4-methyl-piperazin-1-yl)-2-oxo-ethyl]-amide]
IMR 32 % of Blockade @ 1 μM [1]: 52%
IMR 32 % of Blockade @ 10 μM [2]: 95%

Molecule: CC(C)C[C@@H](C(=O)N[C@@H](Cc1ccc(OCc2ccccc2)cc1)C(=O)NC(C)(C)C)N(C)CCC(C)(C)C (relative stereo) [Example 36, [S-(R*,R*)]-2-[(3,3-Dimethyl-butyl)-methyl-amino]-4-methyl-pentanoic acid [2-(4-benzyloxy-phenyl)-1-tert-butylcarbamoyl-ethyl]-amide]
IC50 [3]: 0.4 µM

Molecule: CC(C)CCN(C)[C@@H](CC(C)C)C(=O)N[C@@H](Cc1ccc(OCc2ccccc2)cc1)C(=O)N1CCSCC1 (relative stereo) [Example 61, [S-(R*,R*)]-4-Methyl-2-[methyl-(3-methyl-butyl)-amino]-pentanoic acid [1-(4-benzyloxy-benzyl)-2-oxo-2-thiomorpholin-4-yl-ethyl]-amide]
IC50 [3]: 0.4 µM

The remaining lines, values ahead:

IC50 [4]: 3.1 µM
Molecule: CC(C)C[C@@H](C(=O)N[C@@H](Cc1ccc(OCc2ccccc2)cc1)C(=O)NCCN1CCSCC1)N1CCOCC1 (relative stereo) [Example 122, [S-(R*,R*)]-4-Methyl-2-morpholin-4-yl-pentanoic acid [2-(4-benzyloxy-phenyl)-1-(2-thiomorpholin-4-yl-ethylcarbamoyl)-ethyl]-amide]

IC50 [3]: 0.7 µM
Molecule: CC(C)C[C@H](NC1CCOCC1)C(=O)N[C@@H](Cc1ccc(OCc2ccccc2)cc1)C(=O)NCCNCc1ccccc1 (relative stereo) [Example 71, [S-(R*,R*)]-4-Methyl-2-(tetrahydro-pyran-4-ylamino)-pentanoic acid [1-(2-benzylamino-ethylcarbamoyl)-2-(4-benzyloxy-phenyl)-ethyl]-amide]

IC50 [4]: 3.9 µM
Molecule: [S-(R*,R*)]-4-Methyl-2-(tetrahydropyran-4-yl-amino)-pentanoic acid [2-(4-benzyloxy-phenyl)-1-(-(2-pyridin-2-yl-ethylcarbamoyl)-ethyl]-amide [Example 128]

IC50 [3]: 2.6 µM
Molecule: CCC(CO)(CO)NC(=O)C(Cc1ccc(OCc2ccccc2)cc1)NC(=O)C(CC(C)C)NC1CCOCC1 (stereo not drawn) [Example 74, [S-(R*,R*)]-4-Methyl-2-(tetrahydro-pyran-4-ylamino)-pentanoic acid [2-(4-benzyloxy-phenyl)-1-(1,1-bis-hydroxymethyl-propylcarbamoyl)-ethyl]-amide]

IC50 [4]: 14 µM
Molecule: CC(C)CC(C(=O)NC(Cc1ccc(OCc2ccccc2)cc1)C(=O)NCCCn1ccnc1)N1CCOCC1 (stereo not drawn) [Example 121, [S-(R*,R*)]-4-Methyl-2-morpholin-4-yl-pentanoic acid [2-(4-benzyloxy-phenyl)-1-(3-imidazol-1-yl-propylcarbamoyl)-ethyl]-amide]

IC50 [3]: 1.9 µM
Molecule: CC(C)CCN(C)C(CC(C)C)C(=O)NC(Cc1ccc(OCc2ccccc2)cc1)C(=O)NCCNCCO (stereo not drawn) [Example 66, [S-(R*,R*)]-4-Methyl-2-[methyl-(3-methyl-butyl)-amino]-pentanoic acid {2-(4-benzyloxy-phenyl)-1-[2-(2-hydroxy-ethylamino)-ethylcarbamoyl]-ethyl}-amide]

IC50 [3]: 2.6 µM
Molecule: CC(C)C[C@H](NC1CCOCC1)C(=O)N[C@@H](Cc1ccc(OCc2ccccc2)cc1)C(=O)NCCN1CCCCC1 (relative stereo) [Example 77, [S-(R*,R*)]-4-Methyl-2-(tetrahydro-pyran-4-ylamino)-pentanoic acid [2-(4-benzyloxy-phenyl)-1-(2-piperidin-1-yl-ethylcarbamoyl)-ethyl]-amide]

IC50 [3]: 0.4 µM
Molecule: COc1ccc(CN(C)[C@@H](CC(C)C)C(=O)N[C@@H](Cc2ccc(OCc3ccccc3)cc2)C(=O)NC(C)(C)C)cc1 (relative stereo) [Example 98, [S-(R*,R*)]-2-[(4-Methoxy-benzyl)-methyl-amino]-4-methyl-pentanoic acid [2-(4-benzyloxy-phenyl)-1-tert-butylcarbamoyl-ethyl]-amide]

IC50 [3]: 2 µM
Molecule: CCN[C@@H](CC(C)C)C(=O)N[C@@H](Cc1ccc(OCc2ccccc2)cc1)C(=O)NC(C)(C)C (relative stereo) [Example 100, [S-(R*,R*)]-2-Ethylamino-4-methyl-pentanoic acid [2-(4-benzyloxy-phenyl)-1-tert-butylcarbamoyl-ethyl]-amide]

IC50 [4]: 7.5 µM
Molecule: CC(C)C[C@H](NC1CCOCC1)C(=O)N[C@@H](Cc1ccc(OCc2ccccc2)cc1)C(=O)NCCN1CCOCC1 (relative stereo) [Example 127, [S-(R*,R*)]-4-Methyl-2-(tetrahydropyran-4-yl-amino)-pentanoic acid [2-(4-benzyloxy-phenyl)-1-(2-morpholin4-yl-ethylcarbamoyl)-ethyl]-amide]

IC50 [4]: 7.2 µM
Molecule: CCC(CO)(CO)NC(=O)[C@H](Cc1ccc(OCc2ccccc2)cc1)NC(=O)[C@H](CC(C)C)N1CCOCC1 (relative stereo) [Example 124, [S-(R*,R*)]-4-Methyl-2-morpholin-4-yl-pentanoic acid [2-(4-benzyloxy-phenyl)-1-(1,1-bis-hydroxymethyl-propyl-carbamoyl)-ethyl]-amide]
